Data on nine molecules can be found in patent US10906889B2, “Polycyclic inhibitors of cyclin-dependent kinase 7 (CDK7)” (Dana-Farber Cancer Institute, Inc., priority 2013, dated 2021).

Some results are limits rather than exact numbers.

For assay [1], the target named is T1, CDK7 (Homo sapiens, UniProt P50613).
T1 construct: purchased Life Technologies (assay service)
The assay is described as follows: Adapta kinase assay (Life Technologies), CDK7. As to conditions: Table 1C, co-factors cyclin H and MNAT1, read-out: CDK7 IC50. The assay is classed as biochemical.

Assay [2] relates to Jurkat cells. The assay is described as follows: Cell proliferation (CellTiter-Glo, 72 hour), Jurkat. It is filed as cell-based. Conditions: Homo sapiens, blood cancer cell line. For orientation: ATP-based viability assays read luminescence as a measure of living cells.

T1 sequence (P50613 whole entry): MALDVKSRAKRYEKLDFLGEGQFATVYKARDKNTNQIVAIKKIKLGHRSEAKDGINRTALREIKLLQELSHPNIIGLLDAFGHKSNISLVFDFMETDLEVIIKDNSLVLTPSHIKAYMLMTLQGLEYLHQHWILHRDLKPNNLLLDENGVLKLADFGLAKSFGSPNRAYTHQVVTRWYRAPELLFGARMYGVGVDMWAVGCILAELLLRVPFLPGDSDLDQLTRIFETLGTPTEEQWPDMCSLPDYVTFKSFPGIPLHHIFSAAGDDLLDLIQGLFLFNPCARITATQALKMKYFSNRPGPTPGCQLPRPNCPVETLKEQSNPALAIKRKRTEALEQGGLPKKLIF
T1 sequence (P51946 whole entry partner): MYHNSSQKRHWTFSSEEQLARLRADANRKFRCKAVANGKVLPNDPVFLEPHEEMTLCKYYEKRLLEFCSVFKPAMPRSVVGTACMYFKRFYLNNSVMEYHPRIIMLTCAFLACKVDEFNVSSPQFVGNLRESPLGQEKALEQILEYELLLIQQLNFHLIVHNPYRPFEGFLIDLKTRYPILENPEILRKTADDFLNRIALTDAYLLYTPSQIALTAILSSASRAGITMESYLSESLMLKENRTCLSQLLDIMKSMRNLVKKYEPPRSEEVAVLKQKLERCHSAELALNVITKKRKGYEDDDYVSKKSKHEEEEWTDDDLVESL
T1 sequence (P51948 whole entry partner): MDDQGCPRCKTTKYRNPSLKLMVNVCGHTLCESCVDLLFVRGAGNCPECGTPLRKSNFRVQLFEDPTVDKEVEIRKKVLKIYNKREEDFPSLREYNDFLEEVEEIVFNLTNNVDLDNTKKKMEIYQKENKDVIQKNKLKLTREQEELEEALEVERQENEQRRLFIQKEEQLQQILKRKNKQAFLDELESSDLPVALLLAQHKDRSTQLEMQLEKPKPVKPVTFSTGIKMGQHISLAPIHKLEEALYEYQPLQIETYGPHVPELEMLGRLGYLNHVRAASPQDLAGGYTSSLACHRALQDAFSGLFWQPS

A word on the IC50: it is the concentration needed to halve the response being measured. As for `CN(C)C/C=C/C(=O)Nc1ccc(C(=O)N[C@H]2CCC[C@@H](Nc3ncc(C#N)c(-c4c[nH]c5ccccc45)n3)C2)cc1` [Compound 117, N-((1S,3R)-3-(5-cyano-4-(1H-indol-3-yl)pyrimidin-2-ylamino)cyclohexyl)-4-((E)-4-(dimethylamino)but-2-enamido)benzamide], the figures for the IC50 in assay [1] and in assay [2] were less than 100 nM and less than 500 nM, respectively.
Consider `CC(C)=CC(=O)Nc1ccc(C(=O)N[C@H]2CCC[C@@H](Nc3ncc(Cl)c(-c4c[nH]c5ccccc45)n3)C2)cc1` [Compound 118, N-((1S,3R)-3-(5-chloro-4-(1H-indol-3-yl)pyrimidin-2-ylamino)cyclohexyl)-4-(3-methylbut-2-enamido)benzamide], for which the figures for the IC50 in assay [1] and in assay [2] were 100 to 1000 nM and 500 to 5000 nM, respectively.
In the case of `CN(C)C/C=C/C(=O)Nc1ccc(C(=O)N[C@@H]2C[C@H](F)C[C@H](Nc3ncc(Cl)c(-c4c[nH]c5ccccc45)n3)C2)cc1` [Compound 120, N-((1S,3R,5R)-3-(5-chloro-4-(1H-indol-3-yl)pyrimidin-2-ylamino)-5-fluorocyclohexyl)-4-((E)-4-(dimethylamino)but-2-enamido)benzamide], the IC50 fell in the range of 100 to 1000 nM in assay [1] and 500 to 5000 nM in assay [2].
In the same order, the values of `CN(C)C/C=C/C(=O)Nc1ccc(C(=O)NC23CCCC(Nc4ncc(Cl)c(-c5c[nH]c6ccccc56)n4)(C2)C3)cc1` [Compound 121, (E)-N-(5-(5-chloro-4-(1H-indol-3-yl)pyrimidin-2-ylamino)bicyclo[3.1.1]heptan-1-yl)-4-(4-(dimethylamino)but-2-enamido)benzamide] are less than 100 nM and less than 500 nM.
As for `CN(C)C/C=C/C(=O)Nc1ccc(S(=O)(=O)N[C@H]2CCC[C@@H](Nc3ncc(Cl)c(-c4c[nH]c5ccccc45)n3)C2)cc1` [Compound 123, (E)-N-(4-(N-((1S,3R)-3-(5-chloro-4-(1H-indol-3-yl)pyrimidin-2-ylamino)cyclohexyl)sulfamoyl)phenyl)-4-(dimethylamino)but-2-enamide], the IC50 in assay [1] is 100 to 1000 nM; in assay [2], less than 500 nM.
`O=C(/C=C/CO)Nc1ccc(C(=O)N[C@H]2CCC[C@@H](Nc3ncc(Cl)c(-c4c[nH]c5ccccc45)n3)C2)cc1` [Compound 124, N-((1S,3R)-3-(5-chloro-4-(1H-indol-3-yl)pyrimidin-2-ylamino)cyclohexyl)-4-((E)-4-hydroxybut-2-enamido)benzamide]: the IC50 in assay [1] is less than 100 nM; in assay [2] it was less than 500 nM.
As to `CN(C)C/C=C/C(=O)Nc1ccc(C(=O)N[C@H]2CCC[C@@H](Nc3ncc(Cl)c(-c4c[nH]c5ccccc45)n3)C2)cc1F` [Compound 126, N-((1S,3R)-3-(5-chloro-4-(1H-indol-3-yl)pyrimidin-2-ylamino)cyclohexyl)-4-((E)-4-(dimethylamino)but-2-enamido)-3-fluorobenzamide], the figures for the IC50 in assay [1] and in assay [2] were less than 100 nM and less than 500 nM, respectively.
On to `CN(C)C/C=C/C(=O)Nc1ccc(CN(C(=O)OC(C)(C)C)[C@H]2CCC[C@@H](Nc3ncc(Cl)c(-c4c[nH]c5ccccc45)n3)C2)cc1` [Compound 127, tert-butyl (1S,3R)-3-(5-chloro-4-(1H-indol-3-yl)pyrimidin-2-ylamino) cyclohexyl(4-((E)-4-(dimethylamino)but-2-enamido)benzyl)carbamate], for which the IC50 in assay [1] was 100 to 1000 nM; in assay [2], 500 to 5000 nM.
With `CN(C)C/C=C/C(=O)Nc1ccc(CN[C@H]2CCC[C@@H](Nc3ncc(Cl)c(-c4c[nH]c5ccccc45)n3)C2)cc1` [Compound 129, (E)-N-(4-(((1S,3R)-3-(5-chloro-4-(1H-indol-3-yl)pyrimidin-2-ylamino)cyclohexylamino)methyl)phenyl)-4-(dimethylamino)but-2-enamide], the IC50 was less than 100 nM in assay [1] and less than 500 nM in assay [2].
